From US20240158393A1, “PYRIDONE COMPOUNDS AND METHODS OF USE” (Exelixis, Inc., priority 2021, published 2024)
Structures can show the parent of a compound that is named as a salt.

Tests used:
Human Axl = target: T1, Human Axl (Homo sapiens, UniProt P30530); assay: Human AXL kinase assay (33P radiometric / HTRF KinEase); assay type: biochemical; conditions: protocols of Examples A-1 and/or A-2
T1 construct: Human AXL (residues 464-885)
T1 sequence (P30530 1-894 Q764R): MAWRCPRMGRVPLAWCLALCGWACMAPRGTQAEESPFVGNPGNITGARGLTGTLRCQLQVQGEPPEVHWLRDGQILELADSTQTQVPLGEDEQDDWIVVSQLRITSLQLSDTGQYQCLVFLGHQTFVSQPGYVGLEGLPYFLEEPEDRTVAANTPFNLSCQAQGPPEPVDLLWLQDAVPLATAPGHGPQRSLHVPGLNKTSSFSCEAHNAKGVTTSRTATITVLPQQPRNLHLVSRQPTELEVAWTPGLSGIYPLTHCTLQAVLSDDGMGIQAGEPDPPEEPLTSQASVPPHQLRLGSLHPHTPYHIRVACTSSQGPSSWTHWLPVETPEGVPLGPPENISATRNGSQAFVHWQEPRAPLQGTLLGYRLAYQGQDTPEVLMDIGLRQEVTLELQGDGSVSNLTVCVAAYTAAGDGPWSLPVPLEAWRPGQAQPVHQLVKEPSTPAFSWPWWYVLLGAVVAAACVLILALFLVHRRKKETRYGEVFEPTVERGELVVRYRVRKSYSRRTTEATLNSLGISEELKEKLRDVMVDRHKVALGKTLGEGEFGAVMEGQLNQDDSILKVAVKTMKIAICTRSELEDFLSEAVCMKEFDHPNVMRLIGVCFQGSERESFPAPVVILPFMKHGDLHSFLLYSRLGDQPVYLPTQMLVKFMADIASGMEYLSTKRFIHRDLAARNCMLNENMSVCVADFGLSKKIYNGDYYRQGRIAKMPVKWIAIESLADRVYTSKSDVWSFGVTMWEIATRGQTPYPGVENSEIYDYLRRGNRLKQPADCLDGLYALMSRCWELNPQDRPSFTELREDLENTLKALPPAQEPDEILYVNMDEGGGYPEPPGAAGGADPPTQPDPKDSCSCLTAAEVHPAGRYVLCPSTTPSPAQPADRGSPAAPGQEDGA

Human Met = target: T2, Human Met (Homo sapiens, UniProt P08581); assay: Human Met kinase assay (33P radiometric / HTRF KinEase); assay type: biochemical; conditions: protocols of Examples D-1 and/or D-2; read-out: c-Met IC50
T2 construct: Human MET (residues 956-1390)
How it was run: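 Two formats gave IC50s by curve fitting. HTRF KinEase used MET residues 956-1390 with 1 μM biotin-peptide and 3.0 μM ATP (Km) for 40 min at room temperature, ten doses in 3% DMSO, 665/620 nm read. The 33P transfer assay used mutant Met R974-S1390 A1209G/V1290L (3.4 nM), 10 μM ATP, 250 μM peptide, pH 7.0, 40 min, nine doses from 1 μM.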

T2 sequence (P08581 974-1390 limits assumed): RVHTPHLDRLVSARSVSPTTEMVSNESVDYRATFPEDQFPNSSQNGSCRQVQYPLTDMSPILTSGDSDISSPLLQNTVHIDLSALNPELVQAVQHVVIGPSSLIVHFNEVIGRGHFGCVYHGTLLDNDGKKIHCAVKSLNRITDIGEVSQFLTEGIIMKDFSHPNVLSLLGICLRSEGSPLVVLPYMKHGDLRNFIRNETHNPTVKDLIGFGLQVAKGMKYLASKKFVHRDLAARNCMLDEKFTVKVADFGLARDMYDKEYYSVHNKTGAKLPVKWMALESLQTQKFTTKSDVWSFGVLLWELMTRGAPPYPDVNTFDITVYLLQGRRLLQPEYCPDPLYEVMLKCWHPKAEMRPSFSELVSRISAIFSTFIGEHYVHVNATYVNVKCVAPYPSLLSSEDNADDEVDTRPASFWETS

Row | Compound | IC50 (Human Axl) | IC50 (Human Met)
1 | C=C(C)c1c(C)n(C)c(C)c(C(=O)Nc2ccc(Oc3ccnc4cc(OC)c(OC)nc34)c(F)c2)c1=O [Compound 52, N-[4-[(6,7-Dimethoxy-1,5-naphthyridin-4-yl)oxy]-3-fluorophenyl]-1,2,6-trimethyl-4-oxo-5-prop-1-en-2-ylpyridine-3-carboxamide] | ≤ 100 nM | > 300 nM
2 | COc1cc2nccc(Oc3ccc(NC(=O)c4c(C)n(C)c(C)c(C5=CCOCC5)c4=O)cc3F)c2nc1OC [Compound 53, 5-(3,6-Dihydro-2H-pyran-4-yl)-N-[4-[(6,7-dimethoxy-1,5-naphthyridin-4-yl)oxy]-3-fluorophenyl]-1,2,6-trimethyl-4-oxopyridine-3-carboxamide] | ≤ 100 nM | ≤ 100 nM
3 | COCCOc1cc2nccc(Oc3ccc(NC(=O)c4c(C)n(C)c(C)c(/C=C/C5CCCC5)c4=O)cc3F)c2nc1OC [Compound 54, 5-[(E)-2-Cyclopentylethenyl]-N-[3-fluoro-4-[[6-methoxy-7-(2-methoxyethoxy)-1,5-naphthyridin-4-yl]oxy]phenyl]-1,2,6-trimethyl-4-oxopyridine-3-carboxamide] | ≤ 100 nM | 100 to 300 nM
4 | C=C(C)c1c(C)n(C)c(C)c(C(=O)Nc2ccc(Oc3ccnc4cc(OC)c(OC)nc34)cc2)c1=O [Compound 55, N-[4-[(6,7-Dimethoxy-1,5-naphthyridin-4-yl)oxy]phenyl]-1,2,6-trimethyl-4-oxo-5-prop-1-en-2-ylpyridine-3-carboxamide] | ≤ 100 nM | > 300 nM
5 | COCCOc1cc2nccc(Oc3ccc(NC(=O)c4c(C)n(C)c(C)c(C5=CCCCC5)c4=O)cc3F)c2nc1OC [Compound 58, 5-(Cyclohexen-1-yl)-N-[3-fluoro-4-[[6-methoxy-7-(2-methoxyethoxy)-1,5-naphthyridin-4-yl]oxy]phenyl]-1,2,6-trimethyl-4-oxopyridine-3-carboxamide] | ≤ 100 nM | ≤ 100 nM
6 | COCCOc1cnc2c(Oc3ccc(NC(=O)c4c(C)n(C)c(C)c(C5=CCCC5)c4=O)cc3F)ccnc2c1 [Compound 65, 5-(Cyclopenten-1-yl)-N-[3-fluoro-4-[[7-(2-methoxyethoxy)-1,5-naphthyridin-4-yl]oxy]phenyl]-1,2,6-trimethyl-4-oxopyridine-3-carboxamide] | ≤ 100 nM | ≤ 100 nM
7 | COCCOc1cnc2c(Oc3ccc(NC(=O)c4c(C)n(C)c(C)c(C5=CCCCC5)c4=O)cc3F)ccnc2c1 [Compound 66, 5-(Cyclohexen-1-yl)-N-[3-fluoro-4-[[7-(2-methoxyethoxy)-1,5-naphthyridin-4-yl]oxy]phenyl]-1,2,6-trimethyl-4-oxopyridine-3-carboxamide] | ≤ 100 nM | ≤ 100 nM
8 | COc1cc2nccc(Oc3ccc(NC(=O)c4c5n(c(C)c(C6=CCOCC6)c4=O)CCOC5)cc3)c2nc1OC [Compound 73, 7-(3,6-Dihydro-2H-pyran-4-yl)-N-[4-[(6,7-dimethoxy-1,5-naphthyridin-4-yl)oxy]phenyl]-6-methyl-8-oxo-3,4-dihydro-1H-pyrido[2,1-c][1,4]oxazine-9-carboxamide] | ≤ 100 nM | ≤ 100 nM
9 | COc1nc2c(Oc3ccc(NC(=O)c4c(C)n(C)c(C)c(C5=CCCC5)c4=O)cc3F)ccnc2cc1OCCC1CCC1 [Compound 74, N-[4-[[7-(2-Cyclobutylethoxy)-6-methoxy-1,5-naphthyridin-4-yl]oxy]-3-fluorophenyl]-5-(cyclopenten-1-yl)-1,2,6-trimethyl-4-oxopyridine-3-carboxamide] | ≤ 100 nM | ≤ 100 nM
10 | COc1cc2nccc(Oc3ccc(NC(=O)c4cnc(C)c(C5=CCCC5)c4O)cc3F)c2nc1OC [Compound G1-2, 5-(Cyclopenten-1-yl)-N-[4-[(6,7-dimethoxy-1,5-naphthyridin-4-yl)oxy]-3-fluorophenyl]-4-hydroxy-6-methylpyridine-3-carboxamide hydrochloride] | ≤ 100 nM | ≤ 100 nM
11 | COc1cc2nccc(Oc3ccc(NC(=O)c4cnc(C)c(C5=CCCCC5)c4O)cc3F)c2nc1OC [Compound G1-3, 5-(Cyclohexen-1-yl)-N-[4-[(6,7-dimethoxy-1,5-naphthyridin-4-yl)oxy]-3-fluorophenyl]-4-hydroxy-6-methylpyridine-3-carboxamide] | ≤ 100 nM | ≤ 100 nM
12 | COc1cc2nccc(Oc3ccc(NC(=O)c4c5n(cc(C6=CCCCC6)c4=O)CCOC5)cc3F)c2nc1OC [Compound G1-4, 7-(Cyclohexen-1-yl)-N-[4-[(6,7-dimethoxy-1,5-naphthyridin-4-yl)oxy]-3-fluorophenyl]-8-oxo-3,4-dihydro-1H-pyrido[2,1-c][1,4]oxazine-9-carboxamide] | ≤ 100 nM | ≤ 100 nM
